According to ChEMBL document CHEMBL4354853, “Design, Synthesis, and Biological Evaluation of Imidazo[1,2-a]pyridine Derivatives as Novel PI3K/mTOR Dual Inhibitors” (J Med Chem, 2020):

What was measured:
[1] = Half life in Sprague-Dawley rat at 5 mg/kg, po by LC-MS/MS analysis; format: ADME, organism-based; settings: in vivo
[2] = Drug level in tumor of nude BALB/c mouse xenografted with human HCT116 cells at 20 mg/kg, po administered as single dose measured after 48 hrs by LC-MS/MS analysis; format: ADME, organism-based, Neoplasm; settings: read-out: Drug uptake
[3] = Cmax in Sprague-Dawley rat at 5 mg/kg, po by LC-MS/MS analysis; format: ADME, organism-based; set-up: dose 5 mg/kg, route oral; settings: in vivo
[4] = Half life in Sprague-Dawley rat at 1 mg/kg, iv by LC-MS/MS analysis; format: ADME, organism-based; settings: in vivo
[5] = Volume of distribution at steady state in Sprague-Dawley rat at 1 mg/kg, iv by LC-MS/MS analysis; format: ADME, organism-based; settings: in vivo, read-out: Vdss
[6] = AUC (0 to infinity) in Sprague-Dawley rat at 1 mg/kg, iv by LC-MS/MS analysis; format: ADME, organism-based; set-up: dose 1 mg/kg, time infinity, route intravenous; settings: in vivo
[7] = AUC (0 to infinity) in Sprague-Dawley rat at 5 mg/kg, po by LC-MS/MS analysis; format: ADME, organism-based; set-up: dose 5 mg/kg, route oral, time infinity; settings: in vivo
[8] = Clearance in Sprague-Dawley rat at 1 mg/kg, iv by LC-MS/MS analysis; format: ADME, organism-based; settings: in vivo
[9] = Oral bioavailability in Sprague-Dawley rat at 5 mg/kg by LC-MS/MS analysis; format: ADME, organism-based; settings: in vivo

- half-life [1]: 7.94 h
- concentration at 48 h [2]: 600 nM
- Cmax [3]: 553 ng/mL
- half-life [4]: 4.71 h
- Vd [5]: 0.69 L/kg
- AUC(0-inf) [6]: 2960 ng·h/mL
- AUC(0-inf) [7]: 3960 ng·h/mL
- clearance [8]: 5.66 mL/min/kg
- bioavailability [9]: 26.8%
SMILES: COc1ncc(-c2ccc3ncc(-c4nnc(CCN5CCN(C)CC5)o4)n3c2)cc1NS(=O)(=O)c1ccc(F)cc1F
